The NIST ThermoML archive (doi:10.1016/j.jct.2011.01.014)

Experiment: xn = mol fraction of the nth substance listed
Conditions: 101 kPa, Liquid; for mass density: Vibrating tube method; for speed of sound: sound velocity cell

CC(=O)[O-].[NH3+]CCO [2-hydroxyethylammonium acetate] + O
Conditions	mass density, 288.15 K [kg/m3]	mass density, 290.65 K [kg/m3]	mass density, 293.15 K [kg/m3]	mass density, 295.65 K [kg/m3]	speed of sound, 288.15 K [m/s]	speed of sound, 290.65 K [m/s]	speed of sound, 293.15 K [m/s]	speed of sound, 295.65 K [m/s]
x1 = 0.051	1055.26	1054.36	1053.41	1052.44	1676.3	1679	1681.4	1683.6
x1 = 0.1019	1085.14	1084.06	1082.96	1081.85	1768.9	1768.6	1768.1	1767.5
x1 = 0.1963	1116.52	1115.24	1113.95	1112.66	1839	1836.1	1833.1	1830.1
x1 = 0.2894	1131.28	1129.93	1128.59	1127.24	1851.1	1847.3	1843.4	1839.5
x1 = 0.3959	1140.75	1139.38	1138.01	1136.62	1843.1	1838.7	1834.2	1829.7
x1 = 0.5016	1145.83	1144.47	1143.09	1141.71	1833.6	1828.7	1823.9	1819.1
x1 = 0.5821	1148.34	1146.91	1145.54	1144.18	1831.6	1826.5	1821.6	–
x1 = 0.6837	1150.31	1148.88	1147.45	1146.02	1824.3	1818.9	1813.6	–
x1 = 0.7763	1152.17	1150.75	1149.34	1147.92	1824.4	1818.5	1812.9	–
x1 = 0.8761	1153.59	1152.16	1150.75	1149.33	1817.1	1810.7	1804.6	–
x1 = 0.9137	1153.92	1152.5	1151.09	1149.67	1819.5	1812.8	1806.5	–
x1 = 1	1154.7	1153.28	1151.87	1150.45	1817.2	1810	1803.2	–
